Test systems include COLO 205 colon; DU-145 prostate; HL-60(TB) leukemia; HT29 colon; IGROV1 ovarian; KM12 colon; NCI/ADR-RES ovarian; SF-268 CNS; SK-MEL-28 melanoma; SW-620 colon.
Assay in all cases: NCI-60 cell line screen, 48 h

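These data come from cells grown in 96-well plates and exposed to compound for 48 hours at five concentrations. The concentration for full growth arrest is given as TGI.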 Where a SMILES comes first, the peptide text is derived from it. The star is where a group is joined. Fmoc = O=C(OCC1c2ccccc2-c2ccccc21)*; OBn = c1ccc(CO*)cc1; tBu = CC(C)(C)*

With `CC1(O)CC23CC(O)C4(O)C(CC(O)C4(C)C)C(C)(O)C2CCC1C3O` (centres undefined), the TGI with COLO 205 colon, in the assay on DU-145 prostate, with HL-60(TB) leukemia, in the assay on HT29 colon, in the assay on IGROV1 ovarian and with KM12 colon was > 100 µM in each case. Also, the TGI with NCI/ADR-RES ovarian, in the assay on SF-268 CNS, in the assay with SK-MEL-28 melanoma and with SW-620 colon was > 100 µM in each case.
With `CC(OC(C)(C)C)C(NC(=O)OCC1c2ccccc2-c2ccccc21)C(=O)NC(Cc1ccccc1)C(=O)OCc1ccccc1` (centres undefined) (Fmoc-Thr(tBu)-Phe-OBn; configuration not given here), the TGI in the assay with COLO 205 colon, with DU-145 prostate, in the assay with HL-60(TB) leukemia, with HT29 colon, with IGROV1 ovarian and in the assay on KM12 colon was > 100 µM each time. In addition, the TGI in the assay with NCI/ADR-RES ovarian, with SF-268 CNS, in the assay with SK-MEL-28 melanoma and in the assay on SW-620 colon was > 100 µM in each case.
With `CCOC(=O)c1c(-c2ccc(Cl)cc2)c(C#N)c(=S)n(C2OC(COC(C)=O)C(OC(C)=O)C(OC(C)=O)C2OC(C)=O)c1C` (centres undefined), the TGI in the assay on COLO 205 colon, in the assay with DU-145 prostate, with HL-60(TB) leukemia, in the assay on HT29 colon, in the assay on IGROV1 ovarian and with KM12 colon was > 100 µM in each case. Further, the TGI in the assay on NCI/ADR-RES ovarian, in the assay with SF-268 CNS, in the assay with SK-MEL-28 melanoma and with SW-620 colon was > 100 µM each time.
With `CCOC(=O)C(NC(=O)c1ccccc1)(Nc1ccc(S(=O)(=O)Nc2cc(C)on2)cc1)C(F)(F)F` (centres undefined), the TGI in the assay with COLO 205 colon, with DU-145 prostate, in the assay on HL-60(TB) leukemia, in the assay with HT29 colon, with IGROV1 ovarian and with KM12 colon was > 100 µM in each case. The TGI with NCI/ADR-RES ovarian, with SF-268 CNS, with SK-MEL-28 melanoma and in the assay with SW-620 colon was > 100 µM in each case.
For the compound `CN(C)CCCNC(=O)N/N=C/c1ccccn1`, the TGI in the assay on COLO 205 colon, in the assay on DU-145 prostate, in the assay on HL-60(TB) leukemia, in the assay with HT29 colon, in the assay with IGROV1 ovarian and with KM12 colon was > 10 µM each time. For the same compound, the TGI with NCI/ADR-RES ovarian, in the assay on SF-268 CNS, with SK-MEL-28 melanoma and in the assay with SW-620 colon was > 10 µM throughout.
Turning to `Clc1ccc(-c2nn3c(COc4ccc(OCc5nnc6sc(-c7ccc(Cl)cc7)nn56)c(Cl)c4)nnc3s2)cc1`, the TGI with COLO 205 colon is > 100 µM; in the assay with DU-145 prostate, > 100 µM; in the assay with HL-60(TB) leukemia, 36 µM; in the assay with HT29 colon, 36.7 µM; with IGROV1 ovarian, 43.9 µM; in the assay on KM12 colon, > 100 µM. The TGI was > 100 µM with NCI/ADR-RES ovarian, 35.6 µM in the assay with SF-268 CNS, > 100 µM in the assay with SK-MEL-28 melanoma and 74.1 µM in the assay with SW-620 colon.
For `CC(C)(C)OC(=O)N1CCC2(CC1)C(=O)NCN2c1ccccc1`, the TGI in the assay with COLO 205 colon, with DU-145 prostate, in the assay on HL-60(TB) leukemia, with HT29 colon, in the assay on IGROV1 ovarian and in the assay on KM12 colon was > 100 µM in each case. In addition, the TGI with NCI/ADR-RES ovarian, in the assay on SF-268 CNS, in the assay on SK-MEL-28 melanoma and in the assay on SW-620 colon was > 100 µM each time.
As for `CN1CCN(Cc2ccc(C(=S)Nc3ccccc3)s2)CC1`, the TGI in the assay on COLO 205 colon is 45.9 µM; in the assay with DU-145 prostate it was > 100 µM; in the assay with HL-60(TB) leukemia it was > 100 µM; in the assay on HT29 colon, 47.1 µM; in the assay on IGROV1 ovarian, 75.8 µM; in the assay on KM12 colon, > 100 µM. In addition, the TGI in the assay on NCI/ADR-RES ovarian is > 100 µM; in the assay on SF-268 CNS, > 100 µM; with SK-MEL-28 melanoma it was 36.1 µM; in the assay with SW-620 colon, > 100 µM.
Regarding `CCCCCCCCCCCCCCCC[N+](C)(C)CCl`, the TGI was determined as 4.16 µM in the assay with COLO 205 colon; 17.2 µM with DU-145 prostate; 3.12 µM with HL-60(TB) leukemia; 3.82 µM in the assay on HT29 colon; 1.31 µM in the assay with IGROV1 ovarian; 49 µM with NCI/ADR-RES ovarian. The TGI with SF-268 CNS was 9.38 µM; with SK-MEL-28 melanoma, > 50.7 µM; in the assay on SW-620 colon it was > 100 µM.
Regarding `CSC1=C(C)C(/C=N/Nc2ccc([N+](=O)[O-])cc2)=C(C)N(c2ccccc2)S1(=O)=O`, the TGI with COLO 205 colon was > 100 µM; in the assay with DU-145 prostate it was > 100 µM; with HL-60(TB) leukemia it was 17.5 µM; in the assay on HT29 colon, > 100 µM; in the assay with IGROV1 ovarian, > 100 µM; in the assay with KM12 colon, > 100 µM. In addition, the TGI with NCI/ADR-RES ovarian, in the assay on SF-268 CNS, in the assay with SK-MEL-28 melanoma and in the assay with SW-620 colon was > 100 µM each time.
`C[N+](C)([O-])C12CC3CC(CC(C3)C1)C2`: the TGI in the assay on COLO 205 colon was 70.9 µM; with DU-145 prostate, > 100 µM; in the assay on HL-60(TB) leukemia it was > 100 µM; in the assay on HT29 colon, > 100 µM; with IGROV1 ovarian, > 100 µM; in the assay with KM12 colon it was > 100 µM. Moreover, the TGI with NCI/ADR-RES ovarian, in the assay with SF-268 CNS, in the assay with SK-MEL-28 melanoma and in the assay with SW-620 colon was > 100 µM each time.
In the case of `O=c1c2ccccc2n2nnc3ccc(NCCNCCO)c1c32`, the TGI with COLO 205 colon came out at 4.09 µM; in the assay with DU-145 prostate, 2.7 µM; in the assay on HL-60(TB) leukemia, 5.24 µM; in the assay with HT29 colon, 6.49 µM; in the assay on IGROV1 ovarian, 15.6 µM; with KM12 colon, 7.44 µM. In addition, the TGI in the assay with NCI/ADR-RES ovarian was 5.96 µM; in the assay on SF-268 CNS, 6.46 µM; in the assay on SK-MEL-28 melanoma, 10.9 µM; with SW-620 colon, 6.44 µM.

Source of the values: PubChem BioAssay (NCI).
